Laboratory results reported in PubChem BioAssay (NCI).
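Cultured in 96-well plates, cells were exposed to test compound for 48 hours across five concentrations. Definition used: TGI = concentration required for complete inhibition of growth.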

Columns and labels:
Experiment in all cases: NCI anticancer screen, dose series, 48 h
786-0 renal = system: 786-0 renal
A549 NSCLC = system: A549 NSCLC
ACHN renal = system: ACHN renal
BT-549 breast = system: BT-549 breast
CAKI-1 renal = system: CAKI-1 renal
COLO 205 colon = system: COLO 205 colon
DU-145 prostate = system: DU-145 prostate
EKVX NSCLC = system: EKVX NSCLC
HCC-2998 colon = system: HCC-2998 colon
HCT-116 colon = system: HCT-116 colon
HCT-15 colon = system: HCT-15 colon
HL-60(TB) leukemia = system: HL-60(TB) leukemia
HOP-62 NSCLC = system: HOP-62 NSCLC
HOP-92 NSCLC = system: HOP-92 NSCLC
HS 578T breast = system: HS 578T breast
HT29 colon = system: HT29 colon
IGROV1 ovarian = system: IGROV1 ovarian
K-562 leukemia = system: K-562 leukemia
KM12 colon = system: KM12 colon
LOX IMVI melanoma = system: LOX IMVI melanoma
M14 melanoma = system: M14 melanoma
MALME-3M melanoma = system: MALME-3M melanoma
MCF7 breast = system: MCF7 breast
MDA-MB-231 breast = system: MDA-MB-231 breast
MDA-MB-435 = system: MDA-MB-435
MDA-N = system: MDA-N
MOLT-4 leukemia = system: MOLT-4 leukemia
NCI-H226 lung = system: NCI-H226 lung
NCI-H23 lung = system: NCI-H23 lung
NCI-H460 lung = system: NCI-H460 lung
NCI-H522 lung = system: NCI-H522 lung
NCI/ADR-RES ovarian = system: NCI/ADR-RES ovarian
OVCAR-3 ovarian = system: OVCAR-3 ovarian
OVCAR-4 ovarian = system: OVCAR-4 ovarian
OVCAR-5 ovarian = system: OVCAR-5 ovarian
OVCAR-8 ovarian = system: OVCAR-8 ovarian
PC-3 prostate = system: PC-3 prostate
RPMI-8226 leukemia = system: RPMI-8226 leukemia
RXF 393 renal = system: RXF 393 renal
SF-268 CNS = system: SF-268 CNS
SF-295 CNS = system: SF-295 CNS
SF-539 CNS = system: SF-539 CNS
SK-MEL-2 melanoma = system: SK-MEL-2 melanoma
SK-MEL-28 melanoma = system: SK-MEL-28 melanoma
SK-MEL-5 melanoma = system: SK-MEL-5 melanoma
SK-OV-3 ovarian = system: SK-OV-3 ovarian
SN12C renal = system: SN12C renal
SNB-19 CNS = system: SNB-19 CNS
SNB-75 CNS = system: SNB-75 CNS
SR leukemia = system: SR leukemia
SW-620 colon = system: SW-620 colon
T-47D breast = system: T-47D breast
TK-10 renal = system: TK-10 renal
U251 CNS = system: U251 CNS
UACC-257 melanoma = system: UACC-257 melanoma
UACC-62 melanoma = system: UACC-62 melanoma
UO-31 renal = system: UO-31 renal
A498 renal = system: A498 renal
CCRF-CEM leukemia = system: CCRF-CEM leukemia

With `O=c1[nH]nc(-c2ccccc2)n1/N=C\CC/C=N\n1c(-c2ccccc2)n[nH]c1=O` the TGI (786-0 renal) was 75.9 µM, the TGI (A549 NSCLC) was greater than 100 µM and the TGI (ACHN renal) was greater than 100 µM. The TGI (BT-549 breast) was 60.9 µM, the TGI (CAKI-1 renal) was greater than 100 µM and the TGI (COLO 205 colon) was greater than 100 µM. For the same compound, the TGI (DU-145 prostate) was greater than 100 µM, the TGI (EKVX NSCLC) was greater than 100 µM and the TGI (HCC-2998 colon) was greater than 100 µM. The TGI (HCT-116 colon) was greater than 66.7 µM, the TGI (HCT-15 colon) was 49.9 µM and the TGI (HL-60(TB) leukemia) was greater than 100 µM. For the same compound, the TGI (HOP-62 NSCLC) was 98.7 µM, the TGI (HOP-92 NSCLC) was 84.6 µM and the TGI (HS 578T breast) was greater than 83.7 µM. The TGI (HT29 colon) was 42.5 µM, the TGI (IGROV1 ovarian) was greater than 85.2 µM and the TGI (K-562 leukemia) was greater than 100 µM. It also gave a TGI (KM12 colon) greater than 100 µM, a TGI (LOX IMVI melanoma) of 27.1 µM and a TGI (M14 melanoma) of 47.1 µM. It also gave a TGI (MALME-3M melanoma) of 72.4 µM, a TGI (MCF7 breast) greater than 92.2 µM and a TGI (MDA-MB-231 breast) greater than 81.4 µM. The TGI (MDA-MB-435) was 60.8 µM, the TGI (MDA-N) was 44.3 µM and the TGI (MOLT-4 leukemia) was greater than 31.6 µM. It also gave a TGI (NCI-H226 lung) greater than 72.2 µM, a TGI (NCI-H23 lung) of 21.7 µM and a TGI (NCI-H460 lung) greater than 74.5 µM. For the same compound, the TGI (NCI-H522 lung) was greater than 100 µM, the TGI (NCI/ADR-RES ovarian) was 96.9 µM and the TGI (OVCAR-3 ovarian) was 51.8 µM. The TGI (OVCAR-4 ovarian) was greater than 100 µM, the TGI (OVCAR-5 ovarian) was greater than 100 µM and the TGI (OVCAR-8 ovarian) was greater than 86.9 µM. For the same compound, the TGI (PC-3 prostate) was greater than 77.5 µM, the TGI (RPMI-8226 leukemia) was 99.8 µM and the TGI (RXF 393 renal) was greater than 100 µM. The TGI (SF-268 CNS) was greater than 71 µM, the TGI (SF-295 CNS) was greater than 100 µM and the TGI (SF-539 CNS) was greater than 69.5 µM. The TGI (SK-MEL-2 melanoma) was 50.9 µM, the TGI (SK-MEL-28 melanoma) was greater than 54.6 µM and the TGI (SK-MEL-5 melanoma) was greater than 56 µM. The TGI (SK-OV-3 ovarian) was greater than 100 µM, the TGI (SN12C renal) was 47 µM and the TGI (SNB-19 CNS) was greater than 100 µM. The TGI (SNB-75 CNS) was greater than 100 µM, the TGI (SR leukemia) was greater than 94.8 µM and the TGI (SW-620 colon) was greater than 100 µM. For the same compound, the TGI (T-47D breast) was 99 µM, the TGI (TK-10 renal) was greater than 100 µM and the TGI (U251 CNS) was greater than 100 µM. For the same compound, the TGI (UACC-257 melanoma) was greater than 100 µM, the TGI (UACC-62 melanoma) was 43.5 µM and the TGI (UO-31 renal) was greater than 100 µM.

In the case of `Nc1ncnc2c1ncc(=O)n2C1CC(O)C(CO)O1` (stereo unspecified), the TGI (786-0 renal) is reported as greater than 100 µM, the TGI (A498 renal) is reported as greater than 100 µM and the TGI (A549 NSCLC) is reported as greater than 100 µM. The TGI (ACHN renal) was greater than 100 µM, the TGI (BT-549 breast) was greater than 100 µM and the TGI (CAKI-1 renal) was greater than 100 µM. For the same compound, the TGI (CCRF-CEM leukemia) was greater than 100 µM, the TGI (COLO 205 colon) was greater than 100 µM and the TGI (DU-145 prostate) was greater than 100 µM. The TGI (EKVX NSCLC) was greater than 100 µM, the TGI (HCC-2998 colon) was greater than 100 µM and the TGI (HCT-116 colon) was greater than 100 µM. The TGI (HCT-15 colon) was greater than 100 µM, the TGI (HOP-62 NSCLC) was greater than 100 µM and the TGI (HOP-92 NSCLC) was greater than 100 µM. The TGI (HS 578T breast) was greater than 100 µM, the TGI (HT29 colon) was greater than 100 µM and the TGI (IGROV1 ovarian) was greater than 100 µM. The TGI (K-562 leukemia) was greater than 100 µM, the TGI (KM12 colon) was greater than 100 µM and the TGI (LOX IMVI melanoma) was greater than 100 µM. For the same compound, the TGI (M14 melanoma) was greater than 100 µM, the TGI (MALME-3M melanoma) was greater than 100 µM and the TGI (MCF7 breast) was greater than 100 µM. It also gave a TGI (MDA-MB-231 breast) greater than 100 µM, a TGI (MDA-MB-435) greater than 100 µM and a TGI (MDA-N) greater than 100 µM. The TGI (MOLT-4 leukemia) was greater than 100 µM, the TGI (NCI-H226 lung) was greater than 100 µM and the TGI (NCI-H23 lung) was greater than 100 µM. For the same compound, the TGI (NCI-H460 lung) was greater than 100 µM, the TGI (NCI-H522 lung) was greater than 100 µM and the TGI (NCI/ADR-RES ovarian) was greater than 100 µM. The TGI (OVCAR-3 ovarian) was greater than 100 µM, the TGI (OVCAR-4 ovarian) was greater than 100 µM and the TGI (OVCAR-5 ovarian) was greater than 100 µM. The TGI (OVCAR-8 ovarian) was greater than 100 µM, the TGI (PC-3 prostate) was greater than 100 µM and the TGI (RPMI-8226 leukemia) was greater than 100 µM. For the same compound, the TGI (SF-268 CNS) was greater than 100 µM, the TGI (SF-295 CNS) was greater than 100 µM and the TGI (SF-539 CNS) was greater than 100 µM. It also gave a TGI (SK-MEL-2 melanoma) greater than 100 µM, a TGI (SK-MEL-28 melanoma) greater than 100 µM and a TGI (SK-MEL-5 melanoma) greater than 100 µM. It also gave a TGI (SK-OV-3 ovarian) greater than 100 µM, a TGI (SN12C renal) greater than 100 µM and a TGI (SNB-19 CNS) greater than 100 µM. It also gave a TGI (SNB-75 CNS) greater than 100 µM, a TGI (SR leukemia) greater than 100 µM and a TGI (SW-620 colon) greater than 100 µM. For the same compound, the TGI (T-47D breast) was greater than 100 µM, the TGI (TK-10 renal) was greater than 100 µM and the TGI (U251 CNS) was greater than 100 µM. It also gave a TGI (UACC-257 melanoma) greater than 100 µM, a TGI (UACC-62 melanoma) greater than 100 µM and a TGI (UO-31 renal) greater than 100 µM.

`c1ccc2c(c1)c1c(n2CCOCCCN2CCCCC2)CCCC1` gave a TGI (A498 renal) of 91.9 µM, a TGI (A549 NSCLC) of 39.2 µM and a TGI (ACHN renal) of 28.4 µM. It also gave a TGI (BT-549 breast) of 29.6 µM, a TGI (CAKI-1 renal) of 39.3 µM and a TGI (COLO 205 colon) of 45.5 µM. The TGI (DU-145 prostate) was greater than 100 µM, the TGI (EKVX NSCLC) was 62.5 µM and the TGI (HCC-2998 colon) was 33.7 µM. It also gave a TGI (HCT-15 colon) of 27.6 µM, a TGI (HL-60(TB) leukemia) of 30.4 µM and a TGI (HOP-62 NSCLC) of 30.6 µM. For the same compound, the TGI (HOP-92 NSCLC) was 58.1 µM, the TGI (HS 578T breast) was 47.8 µM and the TGI (HT29 colon) was 24.7 µM. It also gave a TGI (IGROV1 ovarian) of 29.2 µM, a TGI (K-562 leukemia) of 30.9 µM and a TGI (KM12 colon) of 30 µM. For the same compound, the TGI (M14 melanoma) was greater than 100 µM, the TGI (MALME-3M melanoma) was 33.3 µM and the TGI (MCF7 breast) was 31.5 µM. For the same compound, the TGI (MDA-MB-231 breast) was 40.1 µM, the TGI (MDA-MB-435) was 33.8 µM and the TGI (MDA-N) was 47.8 µM. The TGI (MOLT-4 leukemia) was 19.6 µM, the TGI (NCI-H226 lung) was 32.5 µM and the TGI (NCI-H23 lung) was 37.9 µM. It also gave a TGI (NCI-H460 lung) of 29.8 µM, a TGI (NCI-H522 lung) of 29.8 µM and a TGI (NCI/ADR-RES ovarian) of 40.6 µM. For the same compound, the TGI (OVCAR-3 ovarian) was 30.7 µM, the TGI (OVCAR-4 ovarian) was 57 µM and the TGI (OVCAR-5 ovarian) was 30 µM. It also gave a TGI (OVCAR-8 ovarian) of 32.5 µM, a TGI (PC-3 prostate) of 33.1 µM and a TGI (RPMI-8226 leukemia) of 92 µM. The TGI (RXF 393 renal) was 25.1 µM, the TGI (SF-268 CNS) was 99.8 µM and the TGI (SF-539 CNS) was 31.3 µM. The TGI (SK-MEL-2 melanoma) was 37.6 µM, the TGI (SK-MEL-28 melanoma) was 38.5 µM and the TGI (SK-MEL-5 melanoma) was 40.7 µM. It also gave a TGI (SN12C renal) of 34.3 µM, a TGI (SNB-19 CNS) of 75.4 µM and a TGI (SNB-75 CNS) of 38.7 µM. The TGI (SR leukemia) was 35.1 µM, the TGI (SW-620 colon) was 39.6 µM and the TGI (T-47D breast) was 43.9 µM. The TGI (TK-10 renal) was 31.9 µM, the TGI (U251 CNS) was 30.5 µM and the TGI (UACC-257 melanoma) was 32.9 µM. It also gave a TGI (UO-31 renal) of 25.4 µM.
